Reference: patent US8778889B2, “Antimicrobial decapeptide oral hygiene treatment” (The United States of America as represented by the …, priority 2003, dated 2014)
In brackets after ≈: the same amount, converted by molar mass. Square brackets hold non-standard residues; d marks the D form. Peptide text beside a SMILES is read from it. αMeK = C[C@](N)(CCCCN)C(=O)O

Columns and labels:
MRSA ATCC #43300 = format: cell-based, Staphylococcus aureus
Text: (§1) As shown in the table below, many drug-resistant pathogens including multidrug-resistant Acinetobacter baumannii (clinical isolates) were susceptible to the bactericidal activity of the newly developed antimicrobial peptides. […] This is shown by their lower MIC and MBC against a number of antibiotic-resistant bacteria including methicillin-resistant Staphylococcus aureus, vancomycin-resistant Enterococci, and multidrug-resistant Acinetobacter baumannii. Many of these resistant strains are involved in nosocomial infections, which affect the immunocompromised and the elderly individuals with weakened defenses. The tests were done in a broth microdilution assay as described in our earlier publication (Concannon et al., 2003).

MRSA ATCC #33591 = format: cell-based, Staphylococcus aureus
Text: as §1

MRSA VVRAMC #10 = format: cell-based, Staphylococcus aureus
Text: as §1

MRSA WRAMC #12 = format: cell-based, Staphylococcus aureus
Text: as §1

MRSA VVRAMC #1 = format: cell-based, Staphylococcus aureus
Text: as §1

MRSA WRAMC #9 = format: cell-based, Staphylococcus aureus
Text: as §1

A. baumannii WRAMC #16 = format: cell-based, Acinetobacter baumannii
Text: as §1

A. baumannii WRAMC #11 = format: cell-based, Acinetobacter baumannii
Text: as §1

A. baumannii WRAMC #17 = format: cell-based, Acinetobacter baumannii
Text: as §1

A. baumannii WRAMC #4 = format: cell-based, Acinetobacter baumannii
Text: as §1

A. baumannii WRAMC #8 = format: cell-based, Acinetobacter baumannii
Text: as §1

A. baumannii WRAMC #13 = format: cell-based, Acinetobacter baumannii
Text: as §1

A. baumannii WRAMC #18 = format: cell-based, Acinetobacter baumannii
Text: as §1

A. baumannii WRAMC #5 = format: cell-based, Acinetobacter baumannii
Text: as §1

A. baumannii WRAMC #14 = format: cell-based, Acinetobacter baumannii
Text: as §1

A. baumannii WRAMC #2 = format: cell-based, Acinetobacter baumannii
Text: as §1

[1] = tested on: oral biofilms formed on saliva-coated HA disks by salivary bacteria; assay: In vitro plaque assay, viable counts of oral biofilms on saliva-coated HA disks; format: cell-based, human salivary bacteria
Text: In conjunction with the dual flow cell system, a modification of an in vitro plaque model of biofilm formation described by Guggenheim et al. (Guggenheim et al., 2001) was used to determine the effects of tested antimicrobials and other agents on developed oral biofilms (see Appendix I for details). HA disks (Clarkson, south Williamsport, Pa.) were employed as substrates for salivary bacteria to form biofilms.
To determine the inhibitory activity of KSL on developed oral biofilms, disks containing 45 h-old biofilms were transferred to wells containing aqueous KSL (200 μg/ml; 1 ml/well). Following 30 min exposure at 37° C., disks were rinsed with 3×1 ml of saline and transferred to sterile 15 ml polypropylene tubes containing 1 ml PBS. Biofilm cells adherent to surfaces (after treatment) were recovered by sonicating for 2 min at 5 watts with a Microson ultrasonic cell disrupter equipped with a cup horn (Misonix Inc., Farmingdale, N.Y.). Settings including the time interval used in the sonication were predetermined empirically to yield maximal recovery of adherent biofilm cells.
The effect of KSL on disrupted biofilms was assessed by recovering biofilm cells from HA disks (45 h-old biofilms) through sonication as described above. The detached biofilm cells (in sterile dH2O) were mixed with an equal volume of aqueous KSL to obtain a final peptide concentration of 200 μg/ml, and the reaction mixtures incubated at 37° C. for 30 min. The interactions of KSL and suspended biofilm cells were terminated by washing in PBS.
To determine the effect of the surface-active agent (benzalkonium chloride; Sigma, St. Louis, Mo.) in promoting the killing of intact biofilms by KSL, 66 h-old oral biofilms were treated with KSL (200 μg/ml), benzalkonium chloride (0.001%), or a combination of the two agents, followed by viable counts determinations and confocal laser scanning microscopy of treated samples.
Viable counts of biofilm cells derived from treated disks or disrupted biofilms were determined by spiral plating serially diluted samples onto blood agar plates. Distilled water or 0.12% aqueous chlorhexidine digluconate (Sigma) was used as the negative or positive control, respectively. The 45 h-old biofilms were exposed to chlorhexidine for 1 min, and to water for 30 min at 37° C.
In this assay, HA disks (Clarkson Chromatography Products, Inc., South Williamsport, Pa.) were used as surfaces on which plaque formation can occur. Before use, sterile HA disks were conditioned in the wells of a 24-well microtiter plate (Becton Dickinson, Franklin Lakes, N.J.) containing 50% sterile saliva by incubating at room temperature for a minimum of two hours on a rotating platform at 95 rpm. The saliva was removed and each well inoculated with isolated salivary bacteria at a bacterial cell concentration of 1.0×10^7 cells/ml in sterile 50% whole saliva. After two hours of incubation (with rotation) at 37° C. to allow the bacteria to adhere to surfaces, unattached bacteria were removed and replaced with supplemented saliva-based medium. The plates were incubated with rotation at 37° C. for 45 h (with medium replaced three times), or 66 h (with medium replaced five times) in a CO2 incubator prior to treatments, and the recovery of biofilm cells from treated or untreated disks.
In these studies, KSL or KSL-W was used at 200 μg/ml, whereas Bzl and CPC were used at 0.001% and 0.0025%, respectively. […]

[2] = tested on: biofilms grown on saliva-coated HA surfaces; assay: Live/Dead BacLight staining with confocal laser scanning microscopy of treated biofilms; format: cell-based, human salivary bacteria; details: 66 h-old biofilms; KSL 200 μg/ml, Bzl 0.001%, CHX 0.12%
Method: (A) Effect of KSL on intact versus disrupted 45 h biofilms formed on saliva-coated HA disks by salivary bacteria using the in vitro plaque assay. A Mann-Whitney test was used for comparison of log reductions in CFU between the experimental groups (KSL-treated intact or disrupted biofilms) with the control groups (dH2O-treated intact or disrupted biofilms). The single asterisk represents a statistically significant difference between KSL and dH2O-treated intact biofilms (p<0.05). Likewise, double asterisks represent a statistically significant difference between KSL and dH2O-treated disrupted biofilms (p<0.01). […] (B) Effect of benzalkonium chloride in promoting the bactericidal activity of KSL against 66 h-old intact oral biofilms formed on saliva-coated HA disks using the in vitro plaque system. A Kruskal-Wallis test was used to compare log reductions in CFU among various treatment groups including the control group (dH2O-treated). The single asterisk represents a statistically significant difference between the combined treatment of KSL and benzalkonium chloride (Bzl) and dH2O (p<0.001), KSL (p<0.01), or Bzl (p<0.01)-treated intact biofilms. Double asterisks represent a statistically significant difference between CHX and dH2O (p<0.001) or Bzl (P<0.05)-treated intact biofilms. […] No significant difference in viability counts was observed between CHX-treated versus the combined use of KSL and Bzl. For (A) and (B), the data represent the determinations of one of three separate experiments, each performed in quadruplicate. Bars represent standard deviations. (C) Confocal images of control and treated biofilms grown on saliva-coated HA surfaces. Live/Dead BacLight™ Viability kit (Molecular Probes, Eugene, Oreg.) was used to assess the viability of biofilm cells exposed to different treatments. […] An excitation wavelength of 488 nm was used and the fluorescence light emitted was collected by two separate emission filters, 500-530 nm (SYTO 9, live), and 650-710 nm (propidium iodide, dead). […]

VRE VVRAMC #7 = format: cell-based, Enterococci
Text: as §1

VRE WRAMC #3 = format: cell-based, Enterococci
Text: as §1

VRE ATCC #51299 = format: cell-based, Enterococci
Text: as §1

VRE WRAMC #6 = format: cell-based, Enterococci
Text: as §1

A. baumannii ATCC #19606 = format: cell-based, Acinetobacter baumannii
Text: as §1

A. baumannii WRAMC #19 = format: cell-based, Acinetobacter baumannii
Text: as §1

A. baumannii WRAMC #15 = format: cell-based, Acinetobacter baumannii
Text: as §1

| Compound | MBC (MRSA ATCC #43300) [µg/mL] | MIC (MRSA ATCC #43300) [µg/mL] | MBC (MRSA ATCC #33591) [µg/mL] | MIC (MRSA ATCC #33591) [µg/mL] | MBC (MRSA VVRAMC #10) [µg/mL] | MIC (MRSA VVRAMC #10) [µg/mL] | MBC (MRSA WRAMC #12) [µg/mL] | MIC (MRSA WRAMC #12) [µg/mL] | MBC (MRSA VVRAMC #1) [µg/mL] | MBC (MRSA WRAMC #9) [µg/mL] | MBC (A. baumannii WRAMC #16) [µg/mL] | MIC (A. baumannii WRAMC #16) [µg/mL] | MBC (A. baumannii WRAMC #11) [µg/mL] | MBC (A. baumannii WRAMC #17) [µg/mL] | MIC (A. baumannii WRAMC #17) [µg/mL] | MBC (A. baumannii WRAMC #4) [µg/mL] | MIC (A. baumannii WRAMC #4) [µg/mL] | MBC (A. baumannii WRAMC #8) [µg/mL] | MBC (A. baumannii WRAMC #13) [µg/mL] | MBC (A. baumannii WRAMC #18) [µg/mL] | other results |
| --- | --- | --- | --- | --- | --- | --- | --- | --- | --- | --- | --- | --- | --- | --- | --- | --- | --- | --- | --- | --- | --- |
| CC(C)[C@H](NC(=O)[C@H](CCCCN)NC(=O)[C@@H](N)CCCCN)C(=O)N[C@H](C(=O)N[C@@H](Cc1ccccc1)C(=O)N[C@@](C)(CCCCN)C(=O)N[C@H](C(=O)N[C@@H](CCCCN)C(=O)N[C@@H](Cc1ccccc1)C(=O)N[C@@H](CCCCN)C(N)=O)C(C)C)C(C)C [KSL-M, NH2-Lys-Lys-Val-Val-Phe-Lys(me)-Val-Lys-Phe-Lys-CONH2] (H-KKVVF[αMeK]VKFK-NH2) | >200 | >200 | >200 | >200 | >200 | >200 | >200 | >200 | >200 | >200 | 100 (≈ 79.1 µM) | 50 (≈ 39.6 µM) | 100 (≈ 79.1 µM) | 200 (≈ 158 µM) | 100 (≈ 79.1 µM) | 50 (≈ 39.6 µM) | 25 (≈ 19.8 µM) | >200 | 200 (≈ 158 µM) | 100 (≈ 79.1 µM) | MIC (MRSA VVRAMC #1): >200 µg/mL; MIC (MRSA WRAMC #9): >200 µg/mL; MIC (A. baumannii WRAMC #8): >200 µg/mL; MBC (A. baumannii WRAMC #5): 50 µg/mL (≈ 39.6 µM); MBC (A. baumannii WRAMC #14): 200 µg/mL (≈ 158 µM); MBC (A. baumannii WRAMC #2): 200 µg/mL (≈ 158 µM) |
| [H]/N=C(\N/C(=N/[H])NCCCCCCNC(=N)NC(=N)Nc1ccc(Cl)cc1)Nc1ccc(Cl)cc1 [chlorhexidine, chlorhexidine digluconate, reference compound] |  |  |  |  |  |  |  |  |  |  |  |  |  |  |  |  |  |  |  |  | reduction of viable counts, intact biofilms ([1]; intact 45-h-old biofilms, 0.12% chlorhexidine, 1 min): larger reduction of viable counts; viability of biofilm cells by live/dead staining [2]: significantly reduced the viability of biofilm cells |
| H-DDDEEKFLRRIGRYGKKVVFWVKFK-NH2 [H1-2] | 12.5 | 3.125 | 12.5 | 3.125 | 25 | 1.56 | 6.25 | 3.125 | 25 | 3.125 | 25 | 12.5 | 50 | 100 | 25 | 50 | 25 | 25 | 50 | 25 | MIC (VRE VVRAMC #7): <1.56 µg/mL; MBC (VRE VVRAMC #7; VRE VVRAMC #7): 0 µg/mL; MBC (VRE WRAMC #3): 25 µg/mL; MIC (VRE WRAMC #3): 6.25 µg/mL; MBC (VRE ATCC #51299): 50 µg/mL; MIC (VRE ATCC #51299): 12.5 (25) μg/ml; MBC (VRE WRAMC #6): 6.25 µg/mL; MIC (VRE WRAMC #6): <1.56 µg/mL; MBC (A. baumannii ATCC #19606): 25 µg/mL; MIC (A. baumannii ATCC #19606): 12.5 µg/mL; MIC (A. baumannii WRAMC #11): 25 µg/mL; MBC (A. baumannii WRAMC #5): 25 µg/mL; MBC (A. baumannii WRAMC #14): 50 µg/mL; MBC (A. baumannii WRAMC #2): 200 µg/mL; MIC (A. baumannii WRAMC #2): 25 µg/mL; MBC (A. baumannii WRAMC #19): 200 µg/mL; MBC (A. baumannii WRAMC #15): 50 µg/mL; MIC (A. baumannii WRAMC #15): 25 µg/mL |
| benzalkonium chloride [reference compound] |  |  |  |  |  |  |  |  |  |  |  |  |  |  |  |  |  |  |  |  | effect on viability of intact biofilms compared to water treatment ([1]; 66 h-old oral biofilms, KSL 200 μg/ml, benzalkonium chloride 0.001%): less effect on the viability; viability of biofilm cells by live/dead staining [2]: less impact on the viability of biofilm cells |
